According to patent US20150104520A1, “Nanoparticle Formulations in Biomarker Detection” (priority 2013, published 2015):

Test system: patients with epithelial ovarian cancer
Assay: Phase 2 randomized two-arm trial, IG-001 plus carboplatin vs paclitaxel plus carboplatin, 1st line
Source text: Phase II ovarian trial design: randomized, two-arm trial, primary advanced epithelial ovarian cancer consisting of 100 patients (50/each arm). […] The primary objective of the study was to determine the Composite Response by GCIG CA-125 Response and Response Evaluation Criteria in Solid Tumors (RECIST): based on non-inferiority study. […] The treatment regimen included 6 cycles of treatment with injection every three weeks and tumor screening after cycles 2, 4 and 6.

| Compound | Response n (%) (composite response by GCIG CA-125 and RECIST, IG-001 260 mg/m^2 or paclitaxel 175 mg/m^2, each + carboplatin 5 AUC, every 3 weeks, 6 cycles) | SAE Rate (%) (patients with SAE) | UAE Rate (%) (patients with UAE) | response rate (each with carboplatin) |
| --- | --- | --- | --- | --- |
| Paclitaxel + Carboplatin | 37 (77.08) n (%) | 15 (31.25) n (%) | 0 (0.00) n (%) | – |
| CC(=O)O[C@H]1C(=O)[C@@]2(C)[C@H]([C@H](OC(=O)c3ccccc3)[C@]3(O)C[C@H](OC(=O)[C@H](O)[C@@H](NC(=O)c4ccccc4)c4ccccc4)C(C)=C1C3(C)C)[C@]1(OC(C)=O)CO[C@@H]1C[C@@H]2O [paclitaxel] | – | – | – | 77.8% |
